Tests used:
[1] = biological target: T1, GFP-CESA6c^P595S: GFP-tagged central cytoplasmic domain of AtCESA6 (cellulose synthase, CESA6) carrying missense mutation P595S, with a His-SUMO tag (Arabidopsis thaliana, UniProt Q94JQ6, P595S); experiment: Microscale thermophoresis (MST) binding to purified GFP-tagged CESA6c^P595S (missense mutant)
T1 construct: We purified AtCESA6 central cytoplasmic domain carrying missense mutation P595S (CESA6c^P595S); His-SUMO; made in house; host or cells: E. coli
Source text: FIGS. 3A-3Q. […] FIG. 3A to FIG. 3G. […] FIG. 3A. Representative 5-day-old dark-grown Arabidopsis Col-0 seedlings grown on growth medium supplemented with different concentrations of ES20 or ES20-1. Scale bar: 1 cm. FIG. 3B. Quantification of hypocotyl length of 5-day-old dark-grown Arabidopsis Col-0 seedlings described in FIG. 3A. Data represent mean±SD (n=12 seedlings). FIG. 3C. Quantification of crystalline cellulose content in the hypocotyl cell walls of 7-day-old dark-grown Col-0 seedlings grown on growth medium supplemented with DMSO (0.1%), 1 μM ES20, or 1 μM ES20-1. Data represent mean±SD (n=3 biological replicates). FIG. 3D and FIG. 3E. […] FIG. 3D. Representative image of 6-day-old rice seedlings grown in sterile water supplemented with DMSO (0.1%), 20 μM ES20, or 20 μM ES20-1. Scale bar: 1 cm. FIG. 3E. Quantification of root length of rice seedlings as described in FIG. 3D. Data represent mean±SD (n=10 seedlings). FIG. 3F and FIG. 3G. […] FIG. 3F. […] Quantification of root length of maize seedlings as described in FIG. 3F. […] Quantitative analysis of the band intensity of YFP-AtCESA6 and SEC12 in ES20-1-treated samples divided by that of DMSO-treated samples in the DARTS assay described in FIG. 3H. […] Statistically significant differences in FIG. 3B were determined using one-way ANOVA followed by Tukey's multiple comparisons test. […]

[2] = biological target: T2, GFP-CESA6c: GFP-tagged central cytosolic domain of AtCESA6 (cellulose synthase, CESA6) with a His-SUMO tag (Arabidopsis thaliana, UniProt Q94JQ6); experiment: Microscale thermophoresis (MST) binding to purified GFP-tagged CESA6c (wild-type); details: FIGS. 3K-3M, 100 nM GFP-CESA6c purified from E. coli, pH 7.5, 10 mM MgCl2, 0.05% Tween 20, 5% DMSO, triplicate, read-out: Kd, thermophoresis binding curve, GFP-CESA6c
T2 construct: His-SUMO; made in house; host or cells: E. coli
T2 sequence (Q94JQ6 322-868 limits assumed): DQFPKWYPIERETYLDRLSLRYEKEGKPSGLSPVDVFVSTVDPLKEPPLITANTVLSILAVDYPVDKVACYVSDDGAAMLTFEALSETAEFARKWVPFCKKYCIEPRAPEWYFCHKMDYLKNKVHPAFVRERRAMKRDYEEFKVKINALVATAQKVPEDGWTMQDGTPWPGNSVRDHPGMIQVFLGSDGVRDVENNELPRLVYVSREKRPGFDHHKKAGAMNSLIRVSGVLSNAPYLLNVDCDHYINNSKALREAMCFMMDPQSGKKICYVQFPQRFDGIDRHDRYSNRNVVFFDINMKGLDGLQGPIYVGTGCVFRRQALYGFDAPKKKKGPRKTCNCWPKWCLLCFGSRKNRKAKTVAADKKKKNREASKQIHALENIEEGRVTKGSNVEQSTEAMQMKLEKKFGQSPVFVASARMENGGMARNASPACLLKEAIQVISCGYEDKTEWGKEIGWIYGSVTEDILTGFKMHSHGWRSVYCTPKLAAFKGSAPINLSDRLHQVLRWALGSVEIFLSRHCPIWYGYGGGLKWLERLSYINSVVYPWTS
Source text: FIGS. 3A-3Q. […] FIG. 3A to FIG. 3G. […] FIG. 3A. Representative 5-day-old dark-grown Arabidopsis Col-0 seedlings grown on growth medium supplemented with different concentrations of ES20 or ES20-1. Scale bar: 1 cm. FIG. 3B. Quantification of hypocotyl length of 5-day-old dark-grown Arabidopsis Col-0 seedlings described in FIG. 3A. Data represent mean±SD (n=12 seedlings). FIG. 3C. Quantification of crystalline cellulose content in the hypocotyl cell walls of 7-day-old dark-grown Col-0 seedlings grown on growth medium supplemented with DMSO (0.1%), 1 μM ES20, or 1 μM ES20-1. Data represent mean±SD (n=3 biological replicates). FIG. 3D and FIG. 3E. […] FIG. 3D. Representative image of 6-day-old rice seedlings grown in sterile water supplemented with DMSO (0.1%), 20 μM ES20, or 20 μM ES20-1. Scale bar: 1 cm. FIG. 3E. Quantification of root length of rice seedlings as described in FIG. 3D. Data represent mean±SD (n=10 seedlings). FIG. 3F and FIG. 3G. […] FIG. 3F. Representative image of 6-day-old maize seedlings grown in sterile water supplemented with DMSO (0.1%), 20 μM ES20, or 20 μM ES20-1. Scale bar: 1 cm. FIG. 3G. Quantification of root length of maize seedlings as described in FIG. 3F. Data represent mean±SD (n=12 seedlings). […] FIG. 3H. Representative immunoblot from a DARTS assay of ES20-1 and YFP-AtCESA6. FIG. 3I. Quantitative analysis of the band intensity of YFP-AtCESA6 and SEC12 in ES20-1-treated samples divided by that of DMSO-treated samples in the DARTS assay described in FIG. 3H. Data represent mean±SD (n=6 biological replicates). FIGS. 3J-3N. […] FIG. 3J. Coomassie blue staining of purified GFP-tagged CESA6c with a His-SUMO tag (lane 2). FIGS. 3K, 3L, 3M, 3N. […] FIG. 3O. Coomassie blue staining of purified GFP-tagged CESA6c^P595S with a His-SUMO tag (lane 2). FIG. 3P and FIG. 3Q. […] Statistically significant differences in FIG. 3B were determined using one-way ANOVA followed by Tukey's multiple comparisons test. Lower-case letters represent ANOVA results for plants grown on medium with 0.1% DMSO, different concentrations of ES20 or ES20-1. […]

Arabidopsis Col-0 = experiment: Crystalline cellulose content measurement of cell wall; format: in vivo, Arabidopsis thaliana
Protocol: Arabidopsis Col-0 seeds were sown on growth medium supplemented with 0.1% DMSO, 1 μM ES20, or different concentrations of ES20 analogs. […] Cellulose extraction and measurement were performed as previously described (Huang et al., 2020).

Cc1ccccc1C(=O)NNC(=S)NC(=O)c1ccccc1 [ES20-1]
Kd [1]: 9.5 ± 6.3 µM
Kd [2]: 4.4 ± 2.5 µM
crystalline cellulose content in hypocotyl cell wall (Arabidopsis Col-0; 1 μM, 7-day-old dark-grown seedlings, mean±SD, n=3): 90 ± 6 µg/mg
reduction of crystalline cellulose levels in the hypocotyl (Arabidopsis Col-0; 1 μM, 7-day-old dark-grown seedlings, vs DMSO): ~45%
root cell wall crystalline cellulose content (Arabidopsis Col-0; 7-day-old light-grown seedlings, different concentrations): very potent in inhibiting cellulose biosynthesis in roots
